The values below come from US9593149B2, “Amylin and calcitonin receptor agonist” (Novo Nordisk A/S, priority 2014, dated 2017).

Numbered stars: 1 amine (or outer) side, 2 acyl side, 3 side chain; on linkers, the order of the positions; unused ones are H or OH. Peptide text beside a SMILES is read from it. * marks the point of attachment. C18 diacid = O=C(O)CCCCCCCCCCCCCCCCC(=O)*; γGlu = O=C(O)[C@H](CCC(=O)[*:2])N[*:1]

A short description of series [1]: Assay (XV) subcutaneous PK in LYD-pigs, co-formulated or co-dosed with liraglutide. The class given is in vivo. As to conditions: for Cmax/D / T½ (hous): LYD-pigs s.c. Here is the method:
The studies were performed in female LYD pigs of SPF origin delivered from Lars Jonson, Hillerødvej 70, Lynge.
Before the animals arrived, the animal rooms and pens were cleaned and disinfected with Virkon S. During the study, the animal rooms were cleaned and washed regularly.
The pigs were group housed during the acclimatisation period. The pigs were fitted with a central venous catheter while under anaesthesia and after the single housed after catheterization in pens ≧3.1 m^2 with straw as bedding. The temperature in the rooms was set at 20−23° C. and the relative humidity to 30-70%. The rooms were illuminated to give a cycle of 12 hours light and 12 hours darkness. Light was on from 07.00 to 19.00 h.
The formulations was prepared similarly and filled in cartridges in all cases.
The animals were dosed subcutaneously as follows.
The s.c. dosing was performed in 4 mm depth, in a site of injection which was secured on beforehand by ultrasound to avoid muscular tissue or heavy vascularization. Dosing was made using NovoPen®4 and needle Novofine 28 G and a needle stopper to ensure 4 mm depth of injection. The needle was kept in the subcutis for 10 seconds after the injection to secure deposition of compound. […] The co-formulation was administered as one injection. Study was performed as a cross over study with adequate wash out between dosings.
Blood was sampled at predefined time points for up till 15 days post dosing to adequately cover the full plasma concentration-time profile of the mimylin derivative. Blood samples were drawn from a central venous catheter to jugularis made through the catheter which was afterwards flushed with 10 ml 0.9% NaCl.
For each blood sampling time point approximately 0.8 mL of whole blood was collected in a 1.5 mL EDTA coated tube, and the tube was gently turned to allowing mixing of the sample with the anticoagulant. Blood samples (for example 0.8 mL) were collected in EDTA buffer (8 mM) and then centrifuged at 4° C. and 2000 G for 10 minutes. Plasma was pipetted into Micronic tubes on dry ice, and kept at −20° C. until analysis.
Individual plasma concentration-time profiles were analysed by a non-compartmental model in Phoenix WinNonlin version 6.3 (Pharsight Inc., Mountain View, Calif., USA).
The area under the plasma concentration versus time curve (AUC, [time×concentration]) was calculated (by the Pharsight programme) after subcutaneous administration, typically until 240-288 hours post dosing, or until last measured concentration. The AUC was calculated and given as AUCinf-pred and dose normalized.
Results of co-formulation studies in LYD-pigs are summarized below

Series [2] in a line: Assay (IV) determination of solubility. It counts as physicochemical. Here is the method: Assay (IV)—Determination of Solubility
The mimylin peptide was dissolved in water at ˜500 nmol/ml and mixed 1:1 with a series of buffers (100 mM glycylglycine pH 3.0, 100 mM glycylglycine pH 4.0, 100 mM glycylglycine pH 5.0, 100 mM bistrispropane pH 6.0, 100 mM bistrispropane pH 6.5, 100 mM bistrispropane pH 7.0, 100 mM bistrispropane pH 7.5, 100 mM bistrispropane pH 8.0).

Series [3] can be described thus: Assay (IX) pK, T½ in mini-pig. Particulars: i.v. It counts as in vivo, Göttingen mini-pigs. The protocol: Assay (IX)—pK—Determination of T½ in Mini-Pig
Pharmacokinetic (PK) studies in Göttingen mini-pigs were conducted in order to determine the T½ of the mimylin compound according to the Examples as indicated after i.v. administration.
T½ values of the amylin analogues of the invention is determined by pharmacokinetic studies in female Göttingen mini-pigs from Ellegaard Göttingen Minipigs ApS and the principles of laboratory animal care are followed.
An acclimatisation period of approximately 6-10 days was allowed before the animals entered the study. At start of the acclimatisation period the mini-pigs were about 5 to 12 months old and in the weight range of 15-35 kg. The mini-pigs had two central venous catheters inserted which were used for blood sampling.
The studies were conducted in an animal room which was illuminated to give a cycle of approximately 12 hours light and 12 hours darkness. The animals were housed individually. The animals had free access to domestic quality drinking water during the study, and no food restrictions applied for PK studies. The animals were weighed on arrival and on the days of dosing.
In the present studies the test substances were administered intravenously in approximately 5 nmol/kg dose. The animals received a single intravenous injection in one central venous catheter and blood sampling was performed from the other catheter, where possible. Each test substance was given to typically three but in some cases two or four animals.
A full plasma concentration-time profile, employing 12-16 sampling points, was obtained from each animal. In example blood samples were collected according to the following schedule:
After Intravenous Administration:
Pre-dose (0), 0.5, 1, 2, 4, 6, 8, 12, 24, 48, 72, 96, 120, 168 and 240 hours after injection. In some cases also additional blood samples up to 288 hours post injection were taken.
At each sampling time, 0.5 to 2 ml of blood was drawn from each animal. The blood samples were taken via the central venous catheter.
The 0.8 mL blood samples were collected into EDTA test tubes (8 mM EDTA). Blood samples were kept on ice for max 20 min. before centrifugation. Plasma was separated using centrifugation (i.e. at 4° C., 10 min., 2000G) and was immediately transferred to Micronic tubes on dry ice. Approximately 200 μl plasma was transferred to each Micronic tube. The plasma was stored at −20° C. until assayed. The plasma samples were assayed for the content of compound using LCMS.
The plasma concentration-time profiles were analysed by a non-compartmental pharmacokinetic analysis (NCA) using Phoenix WinNonlin 6.3 (Pharsight Inc., Mountain View, Calif., USA). NCA was performed using the individual plasma concentration-time profiles from each animal. T½ is the terminal half-life=In2/λz and was determined from λz, the first order rate constant associated with the terminal (log-linear) portion of the curve, estimated by linear regression of time vs. log concentration.
MS-Method for Amylin and Mimylin Quantification
40 μl plasma is diluted with 120 μl 66.67% EtOH+1% HCOOH and mixed. Centrifuged for 20 min. at 13000 rpm, 4° C. The supernatant is analyzed by an LC-MS method on a Sciex API 3000 and quantitated with a standard made up in plasma

Where [4] appears, read: Co-formulation liraglutide + Ex #46.

`CC(C)C[C@H](NC(=O)[C@H](C)NC(=O)[C@H](C)NC(=O)[C@@H](NC(=O)[C@H](CO)NC(=O)[C@H](CC(C)C)NC(=O)[C@H](CCC(=O)O)NC(=O)[C@H](CO)NC(=O)[C@H](C)NC(=O)CC[C@H](NC(=O)CCCCCCCCCCCCCCCCC(=O)O)C(=O)O)[C@@H](C)O)C(=O)NCC(=O)N[C@@H](CCCNC(=N)N)C(=O)N[C@@H](CC(C)C)C(=O)N[C@@H](CO)C(=O)N[C@@H](C)C(=O)N[C@@H](CCC(=O)O)C(=O)N[C@@H](CC(C)C)C(=O)N[C@@H](Cc1cnc[nH]1)C(=O)N[C@@H](CCC(=O)O)C(=O)N[C@@H](CC(C)C)C(=O)N[C@@H](C)C(=O)N[C@H](C(=O)N[C@@H](CC(C)C)C(=O)N1CCC[C@H]1C(=O)N[C@@H](CCCNC(=N)N)C(=O)N[C@H](C(=O)N[C@@H](CCC(=O)O)C(=O)N[C@H](C(=O)NCC(=O)N[C@@H](CO)C(=O)NCC(=O)N[C@@H](CO)C(=O)N1CCC[C@H]1C(N)=O)[C@@H](C)O)[C@@H](C)O)[C@@H](C)O` [Ex. #46, [N-terminal(C18 diacid-gGlu), des1, 30S, 31G]mimylin] ({C18 diacid-γGlu}-ASELSTAALGRLSAELHELATLPRTETGSGSP-NH2): the “Cmax/D” value was 5.2 kg/L in series [1] (Co-dosing liraglutide + Ex #46) and 5.7 kg/L in series [1] (setting [4]). For the same molecule, the “T½ (hous)” value stood at 129 hous in series [1] (Co-dosing liraglutide + Ex #46) and 133 hous in series [1] (setting [4]). In addition, in series [1] (administered as co-formulations to LYD pigs), the “effect on PK profile of the co-formulated peptide” value is on record as “do not affect the PK profile of liraglutide”. The Solubility entry in series [2] (pH 3.0), in series [2] (pH 4.0), in series [2] (pH 5.0), in series [2] (pH 6.0), in series [2] (pH 6.5) and in series [2] (pH 7.0) was “≧200 μM” each time. The Solubility entry in series [2] (pH 7.5) and in series [2] (pH 8.0) was “≧200 μM” in each case. The “PK mini pig iv T½” value in series [3] was found to be 118 h.
